Data published in paper PMC5353646, “Allosteric modulation of peroxisomal membrane protein recognition by farnesylation of the peroxisomal import receptor PEX19” (Nature Communications, 2017).

Assays:
PEX19 CTD I195K = test: Fluorescence polarization, ALDP peptide binding to PEX19 CTD I195K; set-up: species or system human; conditions: with or without farnesylation, FITC-labelled ALDP peptide 20 nM, triplicate (n = 3)
Experimental: (§1) ALDP peptide (62-AAKAGMNRVFLQRLL-76) fused N-terminally with fluorescein isothiocyanate (FITC), was purchased from Peptide Specialty Laboratories GmbH. The lyophilized powder was dissolved in 1 ml water resulting in a 5 mM stock solution. Overnight dialysis against buffer containing 50 mM Tris pH 8.0, 50 mM NaCl, removed trifluoroacetate counterions. For the determination of each binding curve a 12 point titration was performed with constant concentration of 20 nM labelled peptide with increasing concentrations of PEX19 CTD variants. Starting concentration of PEX19 CTD was 1 mM with 12 serial dilutions reaching 0.5 μM. Reaction mixtures were then transferred into 96-well Optiplate and measured as triplicates in PerkinElmer EnVision plate reader. […]
(§2) Supplementary Figure 6: ALDP af finity measurement for PEX19 CTD proteins using a fluorescence polarization assay . Polarization plots as a function of protein concentration for the direct titration of PEX19 non-farnesylated (black) and farnesylated (red) forms (wild type and residue spedific mutants) into fluorescein-labeled ALDP peptide. […]
(§3) (also on this page, place not known: assay. affinity Fluorescence polarization (mP) wt wtfarn Fluorescence polarization (mP) M179Rfarn 0.00 1.00 Fluorescence polarization (mP) M255Rfarn 0.00 1.00 Fluorescence polarization (mP) I195Kfarn Kd Kd /uni03BCM)

PEX19 CTD M179R = test: Fluorescence polarization, ALDP peptide binding to PEX19 CTD M179R; set-up: species or system human; conditions: with or without farnesylation, FITC-labelled ALDP peptide 20 nM, triplicate (n = 3)
Experimental: as §1, §2, §3

PEX19 CTD M255R = test: Fluorescence polarization, ALDP peptide binding to PEX19 CTD M255R; set-up: species or system human; conditions: with or without farnesylation, FITC-labelled ALDP peptide 20 nM, triplicate (n = 3)
Experimental: as §1, §2, §3

[1] = target: T1, non-farnesylated PEX19 CTD (Homo sapiens, UniProt P40855); test: NMR titration of non-farnesylated PEX19 CTD with PMP peptides; format: binding; conditions: 100 μM PEX19 CTD; peptide molar ratio up to 10:1; 1H,15N HSQC; 298 K
T1 construct: we studied the human PEX19 CTD (residues 161–299) that includes the native C-terminus; hexahistidine (TEV-cleavable) (cleaved yes); made in house; host or cells: Escherichia coli BL21 (DE3)
T1 sequence (P40855 161-299): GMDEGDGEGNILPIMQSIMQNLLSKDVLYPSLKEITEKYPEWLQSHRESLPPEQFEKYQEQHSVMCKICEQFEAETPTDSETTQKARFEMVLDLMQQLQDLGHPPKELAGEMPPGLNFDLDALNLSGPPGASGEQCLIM
Experimental: Figure 4 NMR analysis of PMP binding to non-farnesylated and farnesylated PEX19 CTD. (a) Comparison of ^1H,^15N HSQC spectra of 100 μM non-farnesylated CTD free (black) and in the presence of 10-fold excess of the ALDP-derived peptide (cyan). (b) Comparison of ^1H,^15N HSQC spectra of 100 μM farnesylated PEX19 CTD free (black) and in the presence of 5 (green) and 10 (red) molar ratio of the ALDP peptide. The grey dashed line indicates the position of additional baseline correction applied to remove noise from DMF signals in the peptide stock solution. (c) Chemical shift perturbation of Met/Ile methyl groups seen in ^1H,^13C HSQC experiments upon increasing concentration of ALDP peptide. […] (d) Quantification of chemical shift perturbation (CSP) of amide and methyl groups with respect to the PEX19 amino acid sequence. […] Grey colour refers to residues, which could not be analysed.
NMR spectra were acquired at 298 K on a Bruker Avance III 600-MHz spectrometer with a TCI cryo-probe head, an Avance III 750-MHz spectrometer with a TXI probe head, or an Avance 900 instrument with a TXI cryo-probe head. Spectra were processed using NMRPipe[31] and analysed with Sparky[32]. […] Backbone and side chain assignments were obtained from HNCA, HNCACB, CBCA(CO)NH, H(C)CH-TOCSY and (H)CCH-TOCSY spectra. ^13C- and ^15N- edited NOESY spectra with a mixing time of 70 ms were recorded to derive distance restraints. […]

[2] = NMR 13C secondary chemical shifts (peptide conformation); format: physicochemical; conditions: C-terminally extended version of the ALDP peptide with additional tryptophan (residue 68 to 82)
Text: Phe71 aromatic ring protons
Residue number Leucine residue
Supplementary Figure 8: Intermolecular NOEs between PEX19 CTD and the ALDP peptide, and secondary structure of the latter. (a) 1H,1H plane of a 3D ω1-filtered, ω2-edited 13C-NOESY-HSQC experiment of farnesylated PEX19 CTD free (black) and bound to the ALDP peptide (red). Methyl and methylene protons of the unlabeled farnesyl group of the PEX19 CTD show NOEs with protons of the isotope-labeled farnesylated PEX19 CTD (black circles). In the presence of also unlabeled ALDP peptide additional intermolecular methyl-methyl and aliphatic-aromatic NOEs are observed (red circles and below). (b) NMR 13C secondary chemical shifts of a C-terminally extended […]
tion. (c) Due to signal overlap, 5 out of 7 spin systems for leucine residues were assigned. Nevertheless, also the leucines residues adopt a helical conformation.
(also on this page, place not known: (Leu75)(Leu76) (Leu81)(Leu82) 5 LeuC Cα- Cβ [p.p.m.] Cα- Cβ [p.p.m.] c ω2 ω1 1H (p.p.m.) ω1 1H (p.p.m.) QDPro273/Pro274 { - - { 5)

farnesylated PEX19 CTD = target: T2, farnesylated PEX19 CTD (Homo sapiens, UniProt P40855); test: NMR titration of farnesylated PEX19 CTD with PMP peptides; format: binding; conditions: 1H,15N HSQC; 298 K; ALDP at 5 and 10 molar ratio with 100 μM PEX19 CTD; PEX13 at 1:1.5 and 1:0.5 with 50 μM
T2 construct: we studied the human PEX19 CTD (residues 161–299) that includes the native C-terminus; hexahistidine (TEV-cleavable) (cleaved yes); made in house; host or cells: Escherichia coli BL21 (DE3); farnesylated in vitro with recombinant S. cerevisiae farnesyl transferase
T2 sequence (P40855 161-299): T1 sequence (P40855 161-299)

[3] = target: T3, farnesylated wild type PEX19 CTD (Homo sapiens, UniProt P40855); test: Fluorescence polarization, ALDP peptide binding to farnesylated wild type PEX19 CTD
T3 construct: we studied the human PEX19 CTD (residues 161–299) that includes the native C-terminus; hexahistidine (TEV-cleavable) (cleaved yes); made in house; host or cells: Escherichia coli BL21 (DE3); farnesylated in vitro with recombinant S. cerevisiae farnesyl transferase
T3 sequence (P40855 161-299): T1 sequence (P40855 161-299)
Experimental: as §1, §2
standard deviations for triplicate measurements (n = 3).
as §3

binding to PEX19 CTD I195K (PEX19 CTD I195K): impaired binding
binding to PEX19 CTD M179R (PEX19 CTD M179R): impaired binding
binding to PEX19 CTD M255R (PEX19 CTD M255R): impaired binding
NMR spectral changes of non-farnesylated PEX19 CTD [1]: no significant spectral changes
helical conformation of free peptide [2]: preformed helical conformation
NMR chemical shift perturbations / line broadening of farnesylated PEX19 CTD (farnesylated PEX19 CTD): distinct chemical shift perturbations
affinity (in words) ([3]; farnesylated PEX19 CTD): micromolar affinity
increase in affinity upon farnesylation of wild type PEX19 CTD ([3]; ratio farnesylated vs non-farnesylated wild type PEX19 CTD): seven
Sequence: AAKAGMNRVFLQRLL [ALDP peptide, peptide, residues 62–76 of human ALDP]
